Data from ChEMBL document CHEMBL4138170, “Synthesis and biological evaluation of novel alkylated polyamine analogues as potential anticancer agents” (Eur J Med Chem, 2018).
Calls of active or inactive are those of the source. No cut-off for these calls is given here.

Assays:
[1] = test system: K562; assay: Antiproliferative activity against human K562 cells after 48 hrs by MTT assay; type: functional, cell-based; conditions: K562, 48 h
[2] = test system: HCT-116; assay: Antiproliferative activity against human HCT116 cells after 48 hrs by MTT assay; type: functional, cell-based; conditions: HCT-116, 48 h
[3] = test system: SMMC-7721; assay: Antiproliferative activity against human SMMC7721 cells after 48 hrs by MTT assay; type: functional, cell-based; conditions: SMMC-7721, 48 h
[4] = test system: HepG2; assay: Antiproliferative activity against human HepG2 cells after 48 hrs by MTT assay; type: functional, cell-based; conditions: HepG2, 48 h
[5] = test system: SMMC-7721; assay: Antiproliferative activity against human SMMC7721 cells after 48 hrs in presence of antioxidant NAC by MTT assay; type: functional, cell-based
[6] = Stability of the compound after 24 hrs by 1H NMR spectroscopic method; type: physicochemical
[7] = Stability of the compound after 48 hrs by 1H NMR spectroscopic method; type: physicochemical
[8] = test system: SMMC-7721; assay: Induction of autophagy in human SMMC7721 cells assessed as decrease in p62 levels in presence of antioxidant NAC by Western blot analysis; type: functional, cell-based
[9] = test system: Mus musculus; assay: Toxicity in Swiss mouse xenografted with mouse H22 cells assessed as effect on liver weight at 0.75 mg/kg/day, iv administered via tail vein for 7 days; type: organism-based; conditions: in vivo, 168 h
[10] = test system: Mus musculus; assay: Toxicity in Swiss mouse xenografted with mouse H22 cells assessed as effect on lung weight at 0.75 mg/kg/day, iv administered via tail vein for 7 days; type: organism-based; conditions: in vivo, 168 h
[11] = test system: H22; assay: Antitumor activity against mouse H22 cells implanted in Swiss mouse assessed as tumor growth inhibition at 0.75 mg/kg/day, iv administered via tail vein for 7 days relative to control; type: functional; conditions: 168 h, read-out: TGI
[12] = test system: HepG2; assay: Induction of autophagy in human HepG2 cells up to 10 uM after 48 hrs in presence of antioxidant NAC by MDC staining-based flow cytometry; type: functional, cell-based
[13] = test system: HepG2; assay: Induction of ROS generation in human HepG2 cells at 10 uM after 24 hrs in presence of antioxidant NAC by H2DCFDA staining-based flow cytometry; type: functional, cell-based
[14] = test system: SMMC-7721; assay: Induction of autophagy in human SMMC7721 cells up to 10 uM after 48 hrs in presence of antioxidant NAC by MDC staining-based flow cytometry; type: functional, cell-based
[15] = test system: MCF7; assay: Antiproliferative activity against human MCF7 cells after 48 hrs by MTT assay; type: functional, cell-based; conditions: MCF7, 48 h
[16] = test system: SMMC-7721; assay: Induction of autophagy in human SMMC7721 cells up to 10 uM after 48 hrs by MDC staining-based flow cytometry; type: functional, cell-based
[17] = test system: SMMC-7721; assay: Induction of ROS generation in human SMMC7721 cells at 10 uM after 24 hrs in presence of antioxidant NAC by H2DCFDA staining-based flow cytometry; type: functional, cell-based
[18] = test system: SMMC-7721; assay: Induction of autophagy in human SMMC7721 cells assessed as increase in LC3-2 levels after 24 to 48 hrs by Western blot analysis; type: functional, cell-based
[19] = test system: HepG2; assay: Downregulation of beta-catenin protein expression in human HepG2 cells after 24 to 48 hrs by Western blot analysis; type: functional, cell-based
[20] = test system: HepG2; assay: Induction of autophagy in human HepG2 cells assessed as upregulation of ATG7 expression level up to 10 uM after 24 to 48 hrs by Western blot analysis; type: functional, cell-based
[21] = test system: CT26; assay: Antiproliferative activity against mouse CT26 cells after 48 hrs by MTT assay; type: functional, cell-based; conditions: CT26, 48 h
[22] = test system: MDA-MB-231; assay: Antiproliferative activity against human MDA-MB-231 cells after 48 hrs by MTT assay; type: functional, cell-based; conditions: MDA-MB-231, 48 h
[23] = test system: Mus musculus; assay: Toxicity in Swiss mouse implanted with mouse H22 cells assessed as effect on body weight at 0.75 mg/kg/day, iv administered via tail vein for 7 days; type: organism-based; conditions: in vivo, 168 h
[24] = test system: H22; assay: Antitumor activity against mouse H22 cells implanted in Swiss mouse assessed as inhibition of lung metastasis at 0.75 mg/kg/day, iv administered via tail vein for 7 days relative to control; type: functional; conditions: 168 h
[25] = test system: SMMC-7721; assay: Downregulation of MMP9 protein expression in human SMMC7721 cells after 24 to 48 hrs by Western blot analysis; type: functional, cell-based
[26] = test system: HepG2; assay: Induction of ROS generation in human HepG2 cells at 2.5 to 10 uM after 24 hrs by H2DCFDA staining-based flow cytometry; type: functional, cell-based
[27] = test system: Mus musculus; assay: Toxicity in Swiss mouse xenografted with mouse H22 cells assessed as effect on spleen weight at 0.75 mg/kg/day, iv administered via tail vein for 7 days; type: organism-based; conditions: in vivo, 168 h
[28] = test system: SMMC-7721; assay: Induction of ROS generation in human SMMC7721 cells at 2.5 to 10 uM after 24 hrs by H2DCFDA staining-based flow cytometry; type: functional, cell-based
[29] = test system: H22; assay: Antiproliferative activity against mouse H22 cells after 48 hrs by MTT assay; type: functional, cell-based; conditions: H22, 48 h
[30] = test system: HepG2; assay: Antimigratory activity in human HepG2 cells incubated for 24 to 48 hrs in presence of autophagy inhibitor 3-MA by cell wound scratch assay; type: functional, cell-based
[31] = test system: Mus musculus; assay: Toxicity in Swiss mouse implanted with mouse H22 cells assessed as effect on heart weight at 0.75 mg/kg/day, iv administered via tail vein for 7 days; type: organism-based; conditions: in vivo, 168 h
[32] = test system: HepG2; assay: Induction of autophagy in human HepG2 cells up to 10 uM after 48 hrs by MDC staining-based flow cytometry; type: functional, cell-based
[33] = test system: HepG2; assay: Downregulation of MMP9 protein expression in human HepG2 cells after 24 to 48 hrs by Western blot analysis; type: functional, cell-based
[34] = test system: CT26; assay: Antimetastatic activity against mouse CT26 cells implanted in BALB/c mouse assessed as reduction in lung metastatic nodules at 0.75 mg/kg, iv administered via tail vein for 9 days; type: functional, organism-based
[35] = test system: SMMC-7721; assay: Induction of autophagy in human SMMC7721 cells assessed as increase in Beclin 1 levels at 2.5 to 7.5 um after 24 to 48 hrs by Western blot analysis; type: functional, cell-based
[36] = test system: HepG2; assay: Inhibition of cell migration in human HepG2 cells at 2.5 to 7.5 uM incubated for 24 to 48 hrs by cell wound scratch assay; type: functional, cell-based
[37] = test system: HepG2; assay: Induction of autophagy in human HepG2 cells assessed as increase in LC3-2 levels after 24 to 48 hrs by Western blot analysis; type: functional, cell-based
[38] = test system: Mus musculus; assay: Toxicity in Swiss mouse xenografted with mouse H22 cells assessed as effect on kidney weight at 0.75 mg/kg/day, iv administered via tail vein for 7 days; type: organism-based; conditions: in vivo, 168 h
[39] = test system: HT-29; assay: Antiproliferative activity against human HT-29 cells after 48 hrs by MTT assay; type: functional, cell-based; conditions: HT-29, 48 h
[40] = test system: HepG2; assay: Antiproliferative activity against human HepG2 cells after 48 hrs in presence of antioxidant NAC by MTT assay; type: functional, cell-based
[41] = test system: HepG2; assay: Induction of autophagy in human HepG2 cells assessed as downregulation of p62 expression level up to 10 uM after 24 to 48 hrs by Western blot analysis; type: functional, cell-based
[42] = test system: HepG2; assay: Induction of ROS generation in human HepG2 cells after 24 hrs by H2DCFDA staining-based HCS analysis; type: functional, cell-based
[43] = test system: HepG2; assay: Induction of autophagy in human HepG2 cells assessed as decrease in p62 levels in presence of antioxidant NAC by Western blot analysis; type: functional, cell-based
[44] = test system: HepG2; assay: Induction of autophagy in human HepG2 cells assessed as increase in Beclin 1 levels at 2.5 to 7.5 um after 24 to 48 hrs by Western blot analysis; type: functional, cell-based
[45] = test system: HepG2; assay: Induction of autophagy in human HepG2 cells assessed as increase in LC3-2 levels in presence of antioxidant NAC by Western blot analysis; type: functional, cell-based
[46] = test system: HepG2; assay: Induction of autophagy in human HepG2 cells assessed as upregulation of ATG5 expression level up to 10 uM after 24 to 48 hrs by Western blot analysis; type: functional, cell-based
[47] = test system: SMMC-7721; assay: Downregulation of beta-catenin protein expression in human SMMC7721 cells after 24 to 48 hrs by Western blot analysis; type: functional, cell-based
[48] = test system: SMMC-7721; assay: Induction of autophagy in human SMMC7721 cells assessed as increase in LC3-2 levels in presence of antioxidant NAC by Western blot analysis; type: functional, cell-based
[49] = test system: Mus musculus; assay: Toxicity in Swiss mouse implanted with mouse H22 cells assessed as effect on quality of life at 0.75 mg/kg/day, iv administered via tail vein for 7 days; type: organism-based; conditions: in vivo, 168 h
[50] = test system: SMMC-7721; assay: Inhibition of cell migration in human SMMC7721 cells at 2.5 to 7.5 uM incubated for 24 to 48 hrs by cell wound scratch assay; type: functional, cell-based
[51] = test system: SMMC-7721; assay: Induction of autophagy in human SMMC7721 cells assessed as upregulation of ATG5 expression level up to 10 uM after 24 to 48 hrs by Western blot analysis; type: functional, cell-based
[52] = test system: SMMC-7721; assay: Induction of ROS generation in human SMMC7721 cells after 24 hrs by H2DCFDA staining-based HCS analysis; type: functional, cell-based
[53] = test system: SMMC-7721; assay: Induction of autophagy in human SMMC7721 cells assessed as upregulation of ATG7 expression level up to 10 uM after 24 to 48 hrs by Western blot analysis; type: functional, cell-based
[54] = test system: SMMC-7721; assay: Induction of autophagy in human SMMC7721 cells assessed as downregulation of p62 expression level up to 10 uM after 24 to 48 hrs by Western blot analysis; type: functional, cell-based
[55] = test system: H22; assay: Antitumor activity against mouse H22 cells implanted in Swiss mouse assessed as tumor growth inhibition at 5 mg/kg/day, iv administered via tail vein for 7 days relative to control; type: functional; conditions: 168 h, read-out: TGI
[56] = test system: H22; assay: Antitumor activity against mouse H22 cells implanted in Swiss mouse assessed as inhibition of lung metastasis at 5 mg/kg/day, iv administered via tail vein for 7 days relative to control; type: functional; conditions: 168 h

SMILES: CCCNCCCNCCCNCCCN1C(=O)c2cccc3cccc(c23)C1=O
- IC50 [1]: 10.2 µM
- IC50 [2]: 7.96 µM
- IC50 [3]: 11.2 µM
- IC50 [4]: 9.98 µM

SMILES: Cl.Cl.Cl.O=C1c2cccc3cccc(c23)C(=O)N1CCCNCCCNCCCNC1CC1
- Activity [5]: inactive
- Stability [6]: Stable
- Stability [7]: Stable
- IC50 [1]: 4.67 µM
- Activity [8]: inactive
- Activity [9]: Non-Toxic
- Activity [10]: Non-Toxic
- inhibition in vivo at 0.75 mg/kg/day [11]: 68.3%
- Activity [12]: inactive
- Activity [13]: inactive
- Activity [14]: inactive
- IC50 [15]: 7.47 µM
- Activity [16]: Active
- Activity [17]: inactive
- Activity [18]: Dose-dependent effect
- Activity [19]: Dose-dependent effect
- Activity [20]: Active
- IC50 [21]: 9.04 µM
- IC50 [22]: 5.14 µM
- Activity [23]: Non-Toxic
- inhibition in vivo at 0.75 mg/kg/day [24]: 54.4%
- Activity [25]: Dose-dependent effect
- IC50 [2]: 5.28 µM
- Activity [26]: Active
- Activity [27]: Non-Toxic
- Activity [28]: Active
- IC50 [29]: 7.49 µM
- Activity [30]: Active
- Activity [31]: Non-Toxic
- Activity [32]: Active
- Activity [33]: Dose-dependent effect
- inhibition [34]: Active
- Activity [35]: Active
- inhibition [36]: Active
- Activity [37]: Dose-dependent effect
- Activity [38]: Non-Toxic
- IC50 [39]: 8.18 µM
- Activity [40]: inactive
- Activity [41]: Active
- Activity [42]: Dose-dependent effect
- Activity [43]: inactive
- Activity [44]: Active
- Activity [45]: inactive
- Activity [46]: Active
- Activity [47]: Dose-dependent effect
- Activity [48]: inactive
- Activity [49]: Non-Toxic
- IC50 [3]: 5.13 µM
- inhibition [50]: Active
- IC50 [4]: 6.34 µM
- Activity [51]: Active
- Activity [52]: Dose-dependent effect
- Activity [53]: Active
- Activity [54]: Active

SMILES: CCCNCCCCNCCCCNCCCCN1C(=O)c2cccc3cccc(c23)C1=O
- IC50 [1]: 32.4 µM
- IC50 [2]: 20.4 µM
- IC50 [3]: 18.8 µM
- IC50 [4]: 75.3 µM

SMILES: CCNCCCNCCCNCCCN1C(=O)c2cccc3cccc(c23)C1=O
- IC50 [1]: 6.08 µM
- IC50 [2]: 6.73 µM
- IC50 [3]: 7.71 µM
- IC50 [4]: 6.77 µM

SMILES: CN(C)CCN1C(=O)c2cccc3cc(N)cc(c23)C1=O [AMONAFIDE]
- IC50 [1]: 10.1 µM
- IC50 [2]: 6.86 µM
- inhibition in vivo at 5 mg/kg/day [55]: 45.1%
- inhibition in vivo at 5 mg/kg/day [56]: 41.2%

SMILES: O=C1c2cccc3cccc(c23)C(=O)N1CCCCNCCCCNCCCCNC1CCCCC1
- IC50 [1]: 30.7 µM
- IC50 [2]: 14.2 µM
- IC50 [3]: 14.3 µM
- IC50 [4]: 37 µM
